Measurements as given in patent publication US20230331655A1, “HYDROXYN[…] AND METHODS OF USE THEREOF” (UNIVERSITY OF MARYLAND, BALTIMORE, priority 2020, published 2023).
“Also recorded” adds a separate entry of the source.

Experiments:
Type in all cases: in vivo, mouse
mice = experiment: antidepressant-relevant behavioral actions after oral administration
Male C57BL/6J mice [1] = experiment: naloxone-precipitated morphine withdrawal symptoms; conditions: 10 mg/kg i.p. 10 min before naloxone 1 mg/kg
Description: (§1) Animals: Male C57BL/6J mice (8 weeks old, Jackson laboratories) were kept in a temperature and humidity-controlled environment and maintained in a 12:12 hr light/dark cycle (lights on at 7:00 AM). Mice were singly-housed for all the studies due to increased aggression following opioid administration and were randomly assigned to treatment groups.
(§2) Drugs: (2R,6R)-HNK hydrochloride was synthesized and characterized. Absolute and relative stereochemistry for (2R,6R)-HNK was confirmed by small molecule x-ray crystallography. For the intraperitoneal injections, drugs were dissolved in 0.9% saline and given in a volume of 5 ml/kg.
Precipitated morphine withdrawal symptoms: Mice were given a single injection of saline or morphine (10 mg/kg) in their home cages for 4 days. On Day 5, 1 hr and 50 min after their last saline or morphine injection, mice were given a single injection of saline or (2R,6R)-HNK (10 mg/kg) and 10 min later were given another injection of either saline or the opioid receptor antagonist naloxone (1 mg/kg, i.p.). The mice were immediately placed in plexiglass cylinders and their behaviors were monitored and live-scored for 25 min by an experimenter blind to any treatment conditions. Behaviors that were scored included: number of jumps (escape behavior), number of paw tremors, and occurrence (1 point) or not in each 5-min interval for the following symptoms: stereotypic sniffing, stereotypic rearing, eye ptosis, piloerection, head nodding and swallowing (FIGS. 9A-9H). An average score for each animal was given after analyzing all the withdrawal symptoms (FIG. 10).

Male C57BL/6J mice [2] = experiment: naloxone-precipitated morphine withdrawal conditioned-place aversion; conditions: 10 mg/kg i.p. 10 min before naloxone 1 mg/kg; morphine 10 mg/kg
Description: as §1, §2
Precipitated morphine place aversion: The conditioned-place aversion (CPA) protocol was performed in a rectangular three-chambered box (40 cm length×30 cm width×35 cm height; Stoelting Co., Wood Dale, IL, USA) comprised of two equal sized end-chambers (20 cm×18 cm×35 cm) and a central chamber (20 cm×10 cm×35 cm). […] The CPA protocol consisted of a pre-conditioning phase, four saline/morphine administration days in their home cages, a conditioning phase following morphine precipitated withdrawal in the CPA apparatus and a post-conditioning test. […] Time spent in each compartment was measured during both pre- and post-conditioning sessions using TopScan v2.0 (CleverSys, Inc, VA, USA).

Male C57BL/6J mice [3] = experiment: high-dose morphine conditioned-place preference in stress-naive mice; conditions: single 10 mg/kg i.p., morphine 5 mg/kg
Description: as §1, §2
Morphine conditioned-place preference: The conditioned-place preference (CPP) apparatus consisted of a rectangular three-chambered box (40 cm length×30 cm width×35 cm height; Stoelting Co., Wood Dale, IL, USA) comprised of two equal sized end-chambers (20 cm×18 cm×35 cm) and a central chamber (20 cm×10 cm×35 cm). […] The CPP protocol consisted of a pre-conditioning phase, eight conditioning sessions and a post-conditioning test. […]
Conditioning phase (Days 3-6): During the morning sessions of the conditioning phase, saline was administered and mice were placed in their non-opioid assigned compartment for 40 min. […] Time spent in each compartment was measured during both pre- and post-conditioning sessions using TopScan v2.0 (CleverSys, Inc, VA, USA).

Q: Which “oral doses exerting antidepressant-relevant behavioral actions” value (mice) does the source give for `N[C@@]1(c2ccccc2Cl)CCC[C@@H](O)C1=O` [(2R,6R)-HNK, (2R,6R)-hydroxynorketamine] here?
A: The value was 15 to 50 mg/kg.

Q: And the “average precipitated withdrawal symptoms of morphine” value (Male C57BL/6J mice [1])?
A: Its value is “overall reduction”.

Q: What about the escape-related jumping behavior (Male C57BL/6J mice [1]) of the same compound?
A: Its escape-related jumping behavior is “increasing the escape-related jumping behavior”.

Q: And the paw tremors (Male C57BL/6J mice [1])?
A: The paw tremors was “decreased paw tremors”.

Q: And the “somatic symptoms following naloxone-precipitated morphine withdrawal” value (Male C57BL/6J mice [1])?
A: The value was “decreases somatic symptoms”.

Q: And the “naloxone-induced conditioned-place aversion in morphine-dependent mice” value (Male C57BL/6J mice [2])?
A: The value was “prevents conditioned-place aversion; also recorded: completely prevented”.

Q: What about the “development of high-dose morphine CPP” value (Male C57BL/6J mice [3]) of the same compound?
A: The value was “did not prevent”.
